# Experimental data reported in patent publication US9533983B2, “Antiplatelet agent” (Mitsubishi Tanabe Pharma Corporation, priority 2009, dated 2017).
# Experiments:
# Assay type in all cases: cell-based
# Conditions in all cases: Cavia porcellus, guinea pig PRP
# [1] = test system: Collagen-Induced Platelet Aggregation; assay: Platelet aggregation inhibitory activity: collagen-induced platelet aggregation in platelet rich plasma
# In short: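 Guinea-pig citrated platelet-rich plasma incubated with compound 1 min at 37° C, stirred 1 min, then aggregation induced with collagen and measured by light transmittance, platelet-poor plasma set as 100%. Aggregation rates at each concentration gave the IC50.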
# [2] = test system: Ristocetin-Induced Platelet Aggregation; assay: Platelet aggregation inhibitory activity: ristocetin-induced platelet aggregation in platelet rich plasma
# In short: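 Guinea pig citrated platelet-rich plasma preincubated with compound at 37 °C for 1 min, stirred 1 min, then aggregation induced with ristocetin. Light transmittance measured with PPP set as 100%. IC50 derived from aggregation rates across compound concentrations.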
# [3] = test system: ADP-Induced Platelet Aggregation; assay: Platelet aggregation inhibitory activity: ADP-induced platelet aggregation in platelet rich plasma
# Procedure: A blood of a guinea pig was sampled by using a 1/10 volume of a 3.8% sodium citrate as a platelet aggregation inhibitor, and a platelet rich plasma (PRP) was separated by centrifuging the blood sample at 1100 rpm for 10 min. After fractionating the PRP in the upper layer, the lower layer was centrifuged at 3000 rpm for 10 min to fractionate the platelet poor plasma (PPP). To 100 μL of PRP, a 1 μL solution of each compound was added, and after still standing at 37° C. for 1 min, the mixture was stirred at 37° C. for 1 min by a stirrer. Then, 11 μL of collagen, ristocetin, or ADP was added thereto to induce the platelet aggregation. The platelet aggregation ability was measured by using the mCM hematolaser 313M (L-M-S Inc.). Based on the assumption that a light transmittance of PPP corresponds to a 100% coagulation value, an aggregation rate at each concentration of the compound was determined, then, an IC50 value was calculated therefrom.
# [Platelet Aggregation Inhibitory Activities: ADP-Induced Platelet Aggregation]
SMILES,IC50 [1],IC50 [2],IC50 [3]
"COc1ccc(-n2c(-c3ccccn3)nc3cc(C(F)(F)F)cnc32)cn1 [Example 13, 3-(6-methoxypyridin-3-yl)-2-pyridin-2-yl-6-(trifluoromethyl)-3H-imidazo[4,5-b]pyridine]",42 nM,41 nM,> 10000 nM
"COc1ccc(-n2c(-c3ccccn3)nc3cc(OC(F)(F)F)ccc32)cn1 [Example 40, 1-(6-methoxypyridin-3-yl)-2-pyridin-2-yl-5-(trifluoromethoxy)-1H-benzimidazole]",330 nM,170 nM,> 10000 nM
"COc1ccc(-n2c(-c3ccccn3)nc3cc(OC(F)(F)F)cnc32)cn1 [Example 147, 3-(6-methoxypyridin-3-yl)-2-pyridin-2-yl-6-(trifluoromethoxy)-3H-imidazo[4,5-b]pyridine]",26 nM,13 nM,> 10000 nM
"COc1cnc(-n2c(-c3cc(C)on3)nc3cc(C(F)(F)F)cnc32)cn1 [Example 154, 3-(5-methoxypyrazine-2-yl)-2-(5-methylisoxazol-3-yl)-6-(trifluoromethyl)-3H-imidazo[4,5-b]pyridine]",129 nM,129 nM,–
"COc1ccc(-n2c(-c3ccc(Cl)cn3)nc3cc(C(F)(F)F)cnc32)cn1 [Example 159, 2-(5-chloropyridin-2-yl)-3-(6-methoxypyridin-3-yl)-6-(trifluoromethyl)-3H-imidazo[4,5-b]pyridine]",28 nM,28 nM,–
"COc1ccc(-n2c(-c3cn(C)nn3)nc3cc(C(F)(F)F)cnc32)cn1 [Example 160, 3-(6-methoxypyridin-3-yl)-2-(1-methyl-1H-1,2,3-triazol-4-yl)-6-(trifluoromethyl)-3H-imidazo[4,5-b]pyridine]",163 nM,163 nM,> 10000 nM
"COc1cnc(-n2c(-c3cn(C)cn3)nc3cc(C(F)(F)F)cnc32)cn1 [Example 169, 3-(5-methoxypyrazine-2-yl)-2-(1-methyl-1H-imidazol-4-yl)-6-(trifluoromethyl)-3H-imidazo[4,5-b]pyridine]",123 nM,148 nM,> 10000 nM
"CCCOc1cnc2c(c1)nc(-c1ccccn1)n2-c1ccc(OC)nc1 [Example 173, 3-(6-methoxypyridin-3-yl)-6-propoxy-2-pyridin-2-yl-3H-imidazo[4,5-b]pyridine]",77 nM,85 nM,–
"COc1ccc(-n2c(-c3ccccn3)nc3cc(OCC(C)C)cnc32)cn1 [Example 174, 6-isobuthoxy-3-(6-methoxypyridin-3-yl)-2-pyridin-2-yl-3H-imidazo[4,5-b]pyridine]",84 nM,87 nM,–
"COc1ccc(-n2c(-c3ccccn3)nc3cc(OCC(F)(F)F)cnc32)cn1 [Example 175, 3-(6-methoxypyridin-3-yl)-2-pyridin-2-yl-6-(2,2,2-trifluoroethoxy)-3H-imidazo[4,5-b]pyridine]",75 nM,75 nM,–
"COc1ccc(-n2c(-c3ccccn3)nc3cc(OC(C)C(F)(F)F)cnc32)cn1 (stereo not drawn) [Example 176, 3-(6-methoxypyridin-3-yl)-2-pyridin-2-yl-6-(2,2,2-trifluoro-1-methylethoxy)-3H-imidazo[4,5-b]pyridine]",55 nM,63 nM,–
COc1ccc(-n2c(-c3ccc(F)cn3)nc3cc(OC(F)F)cnc32)cn1 [Example 178],94 nM,47 nM,> 10000 nM
"COc1ccc(-c2c(-c3ccccn3)nc3cc(C(F)(F)F)cnn23)cn1 [Example 179, 3-(6-methoxypyridin-3-yl)-2-pyridin-2-yl-7-(trifluoromethyl)imidazo[1,2-b]pyridazine]",75 nM,34 nM,> 10000 nM
"COc1ccc(-c2c(-c3ccccn3)nn3cc(C(F)(F)F)cnc23)cn1 [Example 180, 3-(6-methoxypyridin-3-yl)-2-pyridin-2-yl-6-(trifluoromethyl)pyrazolo[1,5-a]pyrimidine]",55 nM,14 nM,> 10000 nM
"COc1ccc(-n2c(-c3ccccn3)cc3cc(C(F)(F)F)ccc32)cn1 [Example 182, 1-(6-methoxypyridin-3-yl)-2-pyridin-2-yl-5-(trifluoromethyl)-1H-indole]",116 nM,–,> 10000 nM
"COc1ccc(-n2c(-c3ccc(F)cn3)cc3cc(C(F)(F)F)cnc32)cn1 [Example 184, 2-(5-fluoropyridin-2-yl)-1-(6-methoxypyridin-3-yl)-5-(trifluoromethyl)-1H-pyrrolo[2,3-b]pyridine]",17 nM,–,> 10000 nM

# Next, values leading:
IC50 [1],IC50 [2],IC50 [3],SMILES
33 nM,100 nM,> 10000 nM,"COc1ccc(-n2c(-c3ccccn3)nc3cc(C(F)(F)F)ccc32)nn1 [Example 1, 1-(6-methoxypyridazin-3-yl)-2-pyridin-2-yl-5-(trifluoromethyl)-1H-benzimidazole]"
32 nM,32 nM,> 10000 nM,"COc1ccc(-n2c(-c3ccccn3)nc3cc(OC(F)(F)F)ccc32)nn1 [Example 3, 1-(6-methoxypyridazin-3-yl)-2-pyridin-2-yl-5-(trifluoromethoxy)-1H-benzimidazole]"
21 nM,24 nM,> 10000 nM,"COc1ccc(-n2c(-c3ccc(F)cn3)nc3cc(C(F)(F)F)cnc32)cn1 [Example 4, 2-(5-fluoropyridin-2-yl)-3-(6-methoxypyridin-3-yl)-6-(trifluoromethyl)-3H-imidazo[4,5-b]pyridine]"
25 nM,60 nM,> 10000 nM,"COc1ccc(-n2c(-c3ccc(C#N)cn3)nc3cc(C(F)(F)F)ccc32)nn1 [Example 7, 6-[1-(6-methoxypyridazin-3-yl)-5-(trifluoromethyl)-1H-benzimidazole-2-yl]nicotinonitrile]"
200 nM,–,> 10000 nM,"COc1ccc(-n2c(-c3ccccn3)nc3cc(C(F)(F)F)ccc32)cn1 [Example 14, 1-(6-methoxypyridin-3-yl)-2-pyridin-2-yl-5-(trifluoromethyl)-1H-benzimidazole]"
49 nM,180 nM,> 10000 nM,"COc1ccc(-n2c(-c3ccc(Cl)cn3)nc3cc(C(F)(F)F)ccc32)cn1 [Example 36, 2-(5-chloropyridin-2-yl)-1-(6-methoxypyridin-3-yl)-5-(trifluoromethyl)-1H-benzimidazole]"
54 nM,41 nM,> 10000 nM,"COc1ccc(-n2c(-c3ccn(C)n3)nc3cc(C(F)(F)F)ccc32)nn1 [Example 52, 1-(6-methoxypyridazin-3-yl)-2-(1-methyl-1H-pyrazol-3-yl)-5-(trifluoromethyl)-1H-benzimidazole]"
17 nM,27 nM,> 10000 nM,"COc1ccc(-n2c(-c3ccc(F)cn3)nc3cc(C(F)(F)F)ccc32)nn1 [Example 62, 2-(5-fluoropyridin-2-yl)-1-(6-methoxypyridazin-3-yl)-5-(trifluoromethyl)-1H-benzimidazole]"
78 nM,43 nM,> 10000 nM,"COc1ccc(-n2c(-c3ccc(F)cn3)nc3cc(OC(F)(F)F)ccc32)nn1 [Example 71, 2-(5-fluoropyridin-2-yl)-1-(6-methoxypyridazin-3-yl)-5-(trifluoromethoxy)-1H-benzimidazole]"
120 nM,80 nM,> 10000 nM,"COc1ccc(-n2c(-c3cocn3)nc3cc(C(F)(F)F)ccc32)nn1 [Example 88, 1-(6-methoxypyridazin-3-yl)-2-(1,3-oxazol-4-yl)-5-(trifluoromethyl)-1H-benzimidazole]"
29 nM,29 nM,–,"COc1ccc(-n2c(-c3cocn3)nc3cc(OC(F)(F)F)ccc32)nn1 [Example 155, 1-(6-methoxypyridazin-3-yl)-2-(1,3-oxazol-4-yl)-5-(trifluoromethoxy)-1H-benzimidazole]"
60 nM,60 nM,–,"COc1ccc(-n2c(-c3coc(C)n3)nc3cc(OC(F)(F)F)ccc32)nn1 [Example 158, 1-(6-methoxypyridazin-3-yl)-2-(2-methyl-1,3-oxazol-4-yl)-5-(trifluoromethoxy)-1H-benzimidazole]"
157 nM,135 nM,> 10000 nM,"COc1ccc(-n2c(-c3cn(C)nn3)nc3cc(OC(F)(F)F)ccc32)nn1 [Example 167, 1-(6-methoxypyridazin-3-yl)-2-(1-methyl-1H-1,2,3-triazol-4-yl)-5-(trifluoromethoxy)-1H-benzimidazole]"
21 nM,11 nM,> 10000 nM,"COc1ccc(-n2c(-c3ccc(F)cn3)nc3cc(OC(F)(F)F)cnc32)cn1 [Example 177, 2-(5-fluoropyridin-2-yl)-3-(6-methoxypyridin-3-yl)-6-(trifluoromethoxy)-3H-imidazo[4,5-b]pyridine]"
70 nM,–,> 10000 nM,"COc1ccc(-c2c3ccc(C(F)(F)F)cc3nn2-c2ccc(F)cn2)cn1 [Example 185, 2-(5-fluoropyridin-2-yl)-3-(6-methoxypyridin-3-yl)-6-(trifluoromethyl)-2H-indazole]"
